Data taken from US4698422A, “Triphos and tetraphos gold compounds and ligands” (SmithKline Beckman Corporation, priority 1986, dated 1987).
Where “and” joins values, the source holds several entries; their conditions need not be identical. Identical values can stand only once.

Legend:
[1] = maximally tolerated dose in mice, ip, P388 regimen (Table A); format: in vivo, mouse; settings: mouse, in vivo, ip; maximally tolerated dose for B6D2F female mice, ipqDxs regimen (Days 1 through 5)
Method: (§1) 10^6 P388 leukemia cells are inoculated ip in B6D2F1 mice. Twenty-four hours later, if the tumor inoculum proves to be free of bacterial contamination (as determined by 24 hours incubation in thioglycollate broth), animals are randomized into groups of 6 and housed in shoebox cages. The compound to be evaluated is dissolved in a minimal volume of either N,N-dimethylacetamide (DMA) or 95% ethanol (depending upon solubility). An equal volume of saline is added; if the drug comes out of solution an equal volume of polyethoxylated castor oil is added and then saline qs to a concentration such that the desired dose is delivered in 0.5 ml. The final concentration of DMA, ethanol and polyethoxylated castor oil is […]. Dilutions for lower doses are made with saline so there is a decreasing proportion of organic solvents in the vehicle with decreasing dosage. These vehicles provide soluble formulations (or suspensions). Fomulations are prepared immediately prior to injection. The compound is administered ip on Days 1 through 5 (i.e. treatment is initiated 24 hrs after tumor inoculation). Each experiment includes three groups of 6 animals as untreated controls and animals treated with a positive control, cisplatin, at two dose levels. Animals are weighed as a group on Days 1, 5 and 9 and average weight change (Δwt.) is used as a reflection of toxicity. Each experiment also includes an inoculum titration--groups of 8 mice inoculated ip with 10^5 to […] P388 leukemia cells. The titration is used to calculate cell kill achieved by treatment with drugs. Animals are monitored daily for mortality and experiments are terminated after 45 days. The endpoint is median survival time (MST) and increase in lifespan (ILS) which is the percentage of increase in MST relative to untreated controls. Untreated controls inoculated ip with 10^6 P388 leukemia cells generally survive for a median of 9 to 11 days. A drug is considered active if it produces ≥25 percent ILS.
(§2) ^(a) maximally tolerated dose for B6D2F female mice on an ipqDxs

[2] = tested on: P388 leukemia; assay: in vivo ip P388 lymphocytic leukemia model; set-up: species or system B6D2F1 mice; settings: maximum increase in lifespan, mice bearing ip P388 leukemia; slashes = separate experiments; ip Days 1 through 5; active if ≥25 percent
Method: This tumor system is widely accepted as an antitumor agent screening tool because it is sensitive to virtually all of the clinically active antineoplastic agents; quantitative and reproducible; amenable for large-scale screening; and predictive for activity in other animal tumor models.
as §1, with “These vehicles provide soluble formulations (or suspensions).” left out, “controls.” for “controls. Untreated controls inoculated ip with 10^6 P388 leukemia cells generally survive for a median of 9 to 11 days. A drug is considered active if it produces ≥25 percent ILS.”

[3] = tested on: B6D2F female mice; assay: maximally tolerated dose in mice, ip, P388 regimen (Table A); format: in vivo, mouse; settings: maximally tolerated dose for B6D2F female mice, ipqDxs regimen (Days 1 through 5)
Method: as §1, §2

[4] = tested on: B6D2F1 mice; assay: maximally tolerated dose in mice, ip qD × 10, B16 (Table C); format: in vivo, mouse; settings: maximally tolerated dose for B6D2F1 mice
Method: (§3) In this system, groups of eight B6D2F1 mice are inoculated ip with 0.5 ml of a 10% (w:v) brei of B15 melanoma prepared from pooled sc tumors excised at 14-21 days from […] donor mice. Daily treatment is begun 24 hours after tumor implantation and is continued daily for ten (10) days. The route of drug administration is ip. The mice are monitored daily for survival for sixty (60) days. Antitumor activity is assessed by prolongation of median survival time. An ILS of ≥25% indicates activity in this tumor model.
^(b) maximally tolerated dose for B6D2F1 mice on an ip qD .times

[5] = tested on: B6D2F female mice; assay: maximally tolerated dose in mice, ip qD × 10, M5076 (Table B); format: in vivo, mouse; settings: maximally tolerated dose for B6D2F female mice
Method: (§4) Another chemosensitive tumor model is intraperitoneally (ip) implanted M5076 reticulum cell sarcoma in mice. In this system B6D2F female mice are inoculated with 0.5 ml of a 10 percent (w:v) brei of M5076 prepared from pooled subcutaneous (sc) tumors excised at about 21 days from C57B1/6 donors. Drugs are administered ip. Daily treatment is begun 24 hours after implantation and is continued for ten days. The treatment regimen for M5076 is more prolonged than for P388 because of the slower growth rate and longer control survival time of the M5076 tumor. A drug is considered active in this tumor model if it produces ≥25% ILS.
^(b) maximally tolerated dose for B6D2F female mice on an ip qD

[6] = tested on: M5076 reticulum cell sarcoma; assay: intraperitoneally implanted M5076 reticulum cell sarcoma in mice; format: in vivo, B6D2F female mice; settings: maximum increase in lifespan, mice bearing ip M5076; ip daily for ten days; active if ≥25% ILS
Method: as §4

[7] = tested on: B16 melanoma; assay: in vivo ip B16 melanoma assay; set-up: species or system B6D2F1 mice; settings: maximum increase in lifespan, mice bearing ip B16 melanoma; slash = separate experiments; ip daily for ten days; active if ≥25%
Method: as §3

Row | Molecule | MTD [1] [mg/kg] | ILS (max) [2] | MTD [3] [mg/kg] | other results
1 | c1ccc(P(CCP(c2ccccc2)c2ccccc2)CCP(c2ccccc2)c2ccccc2)cc1 [Compound 6, bis(2-diphenylphosphinoethyl)phenylphosphine] | 32 | 80% and 50% |  | 
2 | c1ccc(P(CCP(CCP(c2ccccc2)c2ccccc2)CCP(c2ccccc2)c2ccccc2)c2ccccc2)cc1 [Compound 7, tris(diphenylphosphinoethyl)phosphine] | 64 | 35% and 30% |  | 
3 | c1ccc(P(CCP(CCP(c2ccccc2)c2ccccc2)c2ccccc2)CCP(c2ccccc2)c2ccccc2)cc1 (stereo not drawn) [Compound 8, 1,1,4,7,10,10-hexaphenyl-1,4,7,10-tetraphosphodecane] | 64 | 25% and 40% |  | 
4 | CC(CP(c1ccccc1)c1ccccc1)(CP(c1ccccc1)c1ccccc1)CP(c1ccccc1)c1ccccc1 [Compound 9, μ-[1,1,1-Tris(diphenylphosphinomethyl)ethane]] | 128 | 45% and 25% |  | 
5 | μ-[1,1,1-Tris(diphenylphosphinomethyl)ethane]tris(chlorogold) [Compound 5] |  | 40% and 30% | 20 | 
6 | μ-[1,1,4,7,10,10-Hexaphenyl-1,4,7,10-tetraphosphodecane]tetrakis(1-thio- β-D-glucopyranosato-S)gold [Compound 4] |  | 100% and 55% | 8 | 
7 | μ-[1,1,4,7,10,10-Hexaphenyl-1,4,7,10-tetraphosphodecane]tetrakis(chlorogold) [Compound 3] |  |  | 12 | MTD [4]: 6 mg/kg; MTD [5]: 8 mg/kg; ILS (MAX) [6]: 96%; ILS [7]: 30% and 51%
8 | μ-[Bis(2-diphenylphosphinoethyl)phenylphosphine]tris(chlorogold) [Compound 1] |  | 30% and 40% | 8 | 
9 | μ-[Tris(2-diphenylphosphinoethyl)phosphine]tetrakis(chlorogold) [Compound 2] |  | 45% | 8 | 
